Measurements as given in patent US6498180B1, “Excitatory amino acid receptor modulators” (Eli Lilly and Company, priority 1999, dated 2002).

Tests used:
mGluR3 [1] = target: T1, mGluR3 (Homo sapiens, UniProt Q14832); assay: [3H] LY341495 binding at mGluR3; design: expressed in transfected cells; details: Example 1: average result from several tests, read-out: Ki, reversal of [3H] LY341495 binding at mGluR3
Source text: (D. D. Schoepp, et al., Neuropharmacol., 1996, 35, 1661-1672 and 1997, 36, 1-11).

animal model of anxiety = details: in vivo
mGluR3 [2] = target: T1, mGluR3; assay: decrease of forskolin-stimulated cAMP in cells expressing mGluR3
Source text: The ability of compounds to function as agonists of glutamate at metabotropic glutamate receptors may be determined by measuring their ability to decrease forskolin-stimulated cAMP in cells expressing mGluR receptors.

T1 sequence (Q14832 23-879): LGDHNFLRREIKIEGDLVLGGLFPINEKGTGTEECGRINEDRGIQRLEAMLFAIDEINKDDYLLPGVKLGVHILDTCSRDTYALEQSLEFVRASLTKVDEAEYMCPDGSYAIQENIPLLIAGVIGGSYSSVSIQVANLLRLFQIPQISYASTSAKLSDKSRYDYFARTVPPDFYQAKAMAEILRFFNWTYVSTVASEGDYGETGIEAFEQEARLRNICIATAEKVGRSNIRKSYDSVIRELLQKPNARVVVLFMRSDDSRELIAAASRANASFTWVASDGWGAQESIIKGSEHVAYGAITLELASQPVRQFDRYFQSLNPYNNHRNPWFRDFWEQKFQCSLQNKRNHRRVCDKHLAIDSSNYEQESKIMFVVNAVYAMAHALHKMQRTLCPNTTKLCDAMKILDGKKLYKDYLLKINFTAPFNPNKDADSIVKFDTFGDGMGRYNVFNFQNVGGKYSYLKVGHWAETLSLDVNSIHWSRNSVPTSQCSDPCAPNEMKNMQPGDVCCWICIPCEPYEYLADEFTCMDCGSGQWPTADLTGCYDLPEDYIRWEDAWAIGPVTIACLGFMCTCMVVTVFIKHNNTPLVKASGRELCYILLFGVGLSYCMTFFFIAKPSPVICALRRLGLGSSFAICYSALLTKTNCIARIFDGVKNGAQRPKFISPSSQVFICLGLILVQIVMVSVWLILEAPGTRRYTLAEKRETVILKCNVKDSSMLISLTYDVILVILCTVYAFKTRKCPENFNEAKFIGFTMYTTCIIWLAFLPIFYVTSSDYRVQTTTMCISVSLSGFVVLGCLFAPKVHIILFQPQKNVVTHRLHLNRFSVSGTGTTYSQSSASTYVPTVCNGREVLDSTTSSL

Row | melting point | SMILES | Ki (mGluR3 [1]) | potency in an animal model of anxiety (animal model of anxiety) | EC50 (mGluR3 [2])
1 | – | N[C@H](C(=O)O)[C@H]1[C@@H](CO)[C@@H]1C(=O)O (racemic) [Example 1, (2SR,1′SR,2′RS,3′RS)-2-(3′-hydroxymethyl-2′-carboxycyclopropyl)glycine] | 7.9 nM | highly potent | 11.5 nM
2 | 200 to 202 °C | N[C@H](C(=O)O)[C@H]1[C@@H](CS)[C@@H]1C(=O)O (racemic) [Example 3, (2SR,1′RS,2′RS,3′RS)-2-[3′-mercaptomethyl-2′-carboxycyclopropyl]glycine] | – | – | –
3 | 201 °C | N[C@H](C(=O)O)[C@H]1[C@@H](CSc2ccccc2)[C@@H]1C(=O)O (racemic) [Example 8, (2SR,1′RS,2′RS,3′RS)-2-[3′-(phenylthiomethyl)-2′-carboxycyclopropyl]glycine] | – | – | –
4 | – | N[C@H](C(=O)O)[C@H]1[C@@H](CO)[C@@H]1C(=O)O (single isomer, unassigned) [Example 22] | 5.1 nM | – | –
